Earlier results as cited in PubChem BioAssay AID1259409 (Chemical Carcinogenesis Research Information System (CCRIS), 2018).

System: rodent chemically induced tumor inhibition, incidence and multiplicity
Assay: CCRIS tumor inhibitor studies
Details: Dose [Inhibitor]: 0, Promoter: NONE USED

C=C(C)[C@H]1CC=C(C)CC1
tumour outcome (control, treated, inhibition, significance) (Carcinogen: METHYLCHOLANTHRENE, 56-49-5, 0.5 ML 1/WK FOR 1 YR BEGINNING POST CARCINOGEN TREATMENT (STUDY DURATION: 24 MO), Route [Inhibitor]: GAVAGE, Species: MOUSE, Strain/Sex: SWISS/MALE, Target Tissue: Type of Lesion: SKIN: SARCOMA AND CARCINOMA, Dose [Carcinogen]: 0.01 MG ON D 1, 7, 14 AND 21 AFTER BIRTH): 5/13 (38%), 2/14 (14%), 63%, not calculated | tumour outcome (control, treated, inhibition, significance) (Carcinogen: METHYLCHOLANTHRENE, 56-49-5, 0.5 ML 1/WK FOR 1 YR BEGINNING POST CARCINOGEN TREATMENT (STUDY DURATION: 24 MO), Route [Inhibitor]: GAVAGE, Species: MOUSE, Strain/Sex: SWISS/MALE, Target Tissue: Type of Lesion: SPLEEN: LYMPHOMA, Dose [Carcinogen]: 0.01 MG ON D 1, 7, 14 AND 21 AFTER BIRTH): 2/13 (15%), 3/14 (21%), -40%, not calculated | tumour outcome (control, treated, inhibition, significance) (Carcinogen: N-ETHYL-N-HYDROXYETHYLNITROSAMINE, 13147-25-6, 150 MG/KG/D IN CORN OIL 5 D/WK FOR 30 WK BEGINNING POST CARCINOGEN TREATMENT (STUDY DURATION: 32 WK), Route [Inhibitor]: GAVAGE, Species: RAT, Strain/Sex: F344/MALE, Target Tissue: Type of Lesion: LIVER: TUMOR, Dose [Carcinogen]: 500 PPM IN DRINKING WATER FOR 2 WK): 26/30 (87%), 17/31 (55%), 37%, p<0.01 | tumour outcome (control, treated, inhibition, significance) (Carcinogen: N-NITROSOMETHYLUREA, 684-93-5, 5% IN DIET BEGINNING 1 WK POST CARCINOGEN TREATMENT AND CONTINUING FOR DURATION OF STUDY (STUDY DURATION: 23 WK), Route [Inhibitor]: ORAL, Species: RAT, Strain/Sex: WISTAR/FEMALE, Target Tissue: Type of Lesion: MAMMARY GLAND: TUMOR, Dose [Carcinogen]: 50 MG/KG ONCE): 80%, 50%, 38%, p<0.001 | tumour outcome (control, treated, inhibition, significance) (Carcinogen: N-NITROSOMETHYLUREA, 684-93-5, 5% IN DIET BEGINNING 2 WK PRIOR TO CARCINOGEN TREATMENT AND CONTINUING FOR DURATION OF STUDY (STUDY DURATION: 23 WK), Route [Inhibitor]: ORAL, Species: RAT, Strain/Sex: WISTAR/FEMALE, Target Tissue: Type of Lesion: MAMMARY GLAND: TUMOR, Dose [Carcinogen]: 50 MG/KG ONCE): 80%, 45%, 47%, p<0.001 | tumour outcome (control, treated, inhibition, significance) (Carcinogen: N-NITROSOMETHYLUREA, 684-93-5, 5% IN DIET FOR 2 WK PRIOR TO AND 1 WK POST CARCINOGEN TREATMENT (STUDY DURATION: 23 WK), Route [Inhibitor]: ORAL, Species: RAT, Strain/Sex: WISTAR/FEMALE, Target Tissue: Type of Lesion: MAMMARY GLAND: TUMOR, Dose [Carcinogen]: 50 MG/KG ONCE): 80%, 74%, 8%, not significant | tumour outcome (control, treated, inhibition, significance) (Carcinogen: SAFROLE, 94-59-7, 0.5 ML 1/WK FOR 1 YR BEGINNING POST CARCINOGEN TREATMENT (STUDY DURATION: 24 MO), Route [Inhibitor]: GAVAGE, Species: MOUSE, Strain/Sex: SWISS/FEMALE, Target Tissue: Type of Lesion: LUNG: PAPILLARY ADENOCARCINOMA, Dose [Carcinogen]: 0.2 MG ON D 1 AND 7 AFTER BIRTH THEN 0.4 MG ON D 14 AND 21): 3/18 (17%), 2/19 (11%), 35%, not calculated | tumour outcome (control, treated, inhibition, significance) (Carcinogen: SAFROLE, 94-59-7, 0.5 ML 1/WK FOR 1 YR BEGINNING POST CARCINOGEN TREATMENT (STUDY DURATION: 24 MO), Route [Inhibitor]: GAVAGE, Species: MOUSE, Strain/Sex: SWISS/FEMALE, Target Tissue: Type of Lesion: SKIN: SARCOMA, Dose [Carcinogen]: 0.2 MG ON D 1 AND 7 AFTER BIRTH THEN 0.4 MG ON D 14 AND 21): 2/18 (11%), 0/19 (0%), 100%, not calculated | tumour outcome (control, treated, inhibition, significance) (Carcinogen: SAFROLE, 94-59-7, 0.5 ML 1/WK FOR 1 YR BEGINNING POST CARCINOGEN TREATMENT (STUDY DURATION: 24 MO), Route [Inhibitor]: GAVAGE, Species: MOUSE, Strain/Sex: SWISS/MALE, Target Tissue: Type of Lesion: LIVER: HEPATOCELLULAR CARCINOMA, Dose [Carcinogen]: 0.2 MG ON D 1 AND 7 AFTER BIRTH THEN 0.4 MG ON D 14 AND 21): 7/24 (29%), 0/24 (0%), 100%, p<0.005 | tumour outcome (control, treated, inhibition, significance) (Carcinogen: SAFROLE, 94-59-7, 0.5 ML 1/WK FOR 1 YR BEGINNING POST CARCINOGEN TREATMENT (STUDY DURATION: 24 MO), Route [Inhibitor]: GAVAGE, Species: MOUSE, Strain/Sex: SWISS/MALE, Target Tissue: Type of Lesion: LUNG: PAPILLARY ADENOCARCINOMA, Dose [Carcinogen]: 0.2 MG ON D 1 AND 7 AFTER BIRTH THEN 0.4 MG ON D 14 AND 21): 5/24 (21%), 1/24 (4%), 81%, not calculated | tumour outcome (control, treated, inhibition, significance) (Carcinogen: SAFROLE, 94-59-7, 0.5 ML 1/WK FOR 1 YR BEGINNING POST CARCINOGEN TREATMENT (STUDY DURATION: 24 MO), Route [Inhibitor]: GAVAGE, Species: MOUSE, Strain/Sex: SWISS/MALE, Target Tissue: Type of Lesion: SKIN: SARCOMA, Dose [Carcinogen]: 0.2 MG ON D 1 AND 7 AFTER BIRTH THEN 0.4 MG ON D 14 AND 21): 2/24 (8%), 0/24 (0%), 100%, not calculated | tumour outcome (control, treated, inhibition, significance) (Carcinogen: SAFROLE, 94-59-7, 0.5 ML 1/WK FOR 1 YR BEGINNING POST CARCINOGEN TREATMENT (STUDY DURATION: 24 MO), Route [Inhibitor]: GAVAGE, Species: MOUSE, Strain/Sex: SWISS/MALE, Target Tissue: Type of Lesion: SPLEEN: LYMPHOMA, Dose [Carcinogen]: 0.2 MG ON D 1 AND 7 AFTER BIRTH THEN 0.4 MG ON D 14 AND 21): 6/24 (25%), 1/24 (4%), 84%, not calculated | tumour outcome (control, treated, inhibition, significance) (Carcinogen: SAFROLE, 94-59-7, 0.5 ML 1/WK FOR 1 YR BEGINNING POST CARCINOMA TREATMENT (STUDY DURATION: 24 MO), Route [Inhibitor]: GAVAGE, Species: MOUSE, Strain/Sex: SWISS/FEMALE, Target Tissue: Type of Lesion: SPLEEN: LYMPHOMA, Dose [Carcinogen]: 0.2 MG ON D 1 AND 7 AFTER BIRTH THEN 0.4 MG ON D 14 AND 21): 9/18 (50%), 2/19 (11%), 78%, not calculated | tumour outcome (control, treated, inhibition, significance) (Carcinogen: TANNIC ACID, 1401-55-4, 0.5 ML 1/WK FOR 1 YR BEGINNING POST CARCINOGEN TREATMENT (STUDY DURATION: 24 MO), Route [Inhibitor]: GAVAGE, Species: MOUSE, Strain/Sex: SWISS/FEMALE, Target Tissue: Type of Lesion: LUNG: PAPILLARY ADENOCARCINOMA, Dose [Carcinogen]: 25 MG/KG BW ON D 1, 7, 14 AND 21 AFTER BIRTH): 2/8 (25%), 0/9 (0%), 100%, not calculated | tumour outcome (control, treated, inhibition, significance) (Carcinogen: TANNIC ACID, 1401-55-4, 0.5 ML 1/WK FOR 1 YR BEGINNING POST CARCINOGEN TREATMENT (STUDY DURATION: 24 MO), Route [Inhibitor]: GAVAGE, Species: MOUSE, Strain/Sex: SWISS/FEMALE, Target Tissue: Type of Lesion: SPLEEN: LYMPHOMA, Dose [Carcinogen]: 25 MG/KG BW ON D 1, 7, 14 AND 21 AFTER BIRTH): 4/8 (50%), 3/9 (33%), 34%, not calculated | tumour outcome (control, treated, inhibition, significance) (Carcinogen: TANNIC ACID, 1401-55-4, 0.5 ML 1/WK FOR 1 YR BEGINNING POST CARCINOGEN TREATMENT (STUDY DURATION: 24 MO), Route [Inhibitor]: GAVAGE, Species: MOUSE, Strain/Sex: SWISS/MALE, Target Tissue: Type of Lesion: LUNG: PAPILLARY ADENOCARCINOMA, Dose [Carcinogen]: 25 MG/KG BW ON D 1, 7, 14 AND 21 AFTER BIRTH): 3/12 (25%), 0/12 (0%), 100%, not calculated | tumour outcome (control, treated, inhibition, significance) (Carcinogen: TANNIC ACID, 1401-55-4, 0.5 ML 1/WK FOR 1 YR BEGINNING POST CARCINOGEN TREATMENT (STUDY DURATION: 24 MO), Route [Inhibitor]: GAVAGE, Species: MOUSE, Strain/Sex: SWISS/MALE, Target Tissue: Type of Lesion: SPLEEN: LYMPHOMA, Dose [Carcinogen]: 25 MG/KG BW ON D 1, 7, 14 AND 21 AFTER BIRTH): 5/12 (42%), 3/12 (25%), 40%, not calculated
